This note sets out measurements from patent US12552846B2, “Modified BCL9 mimetic peptides” (Sapience Therapeutics, Inc., priority 2019, dated 2026).

For the experiment, the system named is HL60 promyelocytic leukemia cells. The experiment can be described thus: Cytotoxicity assay in HL60 cells (Annexin V FITC / PI flow cytometry). Type of experiment: cell-based. The conditions noted are these: 48 hours, 0-80 μM, % Viability (Annexin V low, PI low). How it is done:
We examined the cytotoxicity of peptides BCL-26 and BCL-27 using an assay in HL60 promyelocytic leukemia cells. HL60 PML suspension cells were set at a density of 3.5×10^3 cells/well in 150 μL of RPMI+1.5% fetal bovine serum (FBS) in a 96 well dish. BCL-26 or BCL-27, reconstituted at a concentration of 10 mg/mL in 20 mM His, pH 7.5, was added to each well at a volume of 50 μL to a final concentration range of 0-80 μM. Cells were incubated with peptide for 48 hours at 37° C. Cell viability was quantified by flow cytometry using abcam Annexin V FITC apoptosis detection kit. Briefly, cells were washed with PBS and resuspended in 1× assay buffer containing Annexin V FITC and propidium iodide (PI). Annexin V detects apoptotic cells, and PI stains dead cells. After staining, apoptotic cells show green fluorescence, dead cells show red and green fluorescence, and live cells show little or no fluorescence. Cells were selected for analysis based on forward scatter (FSC) vs. side scatter (SSC), and analyzed by BD Accuri C6 Plus flow cytometer to detect Annexin V-FITC binding (Ex=488 nm; Em=530 nm) using FITC signal detector and PI staining by the phycoerythrnn emission signal detector. Percentage of Annexin V^low and PI^low were quantified and presented as % Viability.
We examined the cytotoxicity of additional retro inverso and mixed chirality BCL9 mimetic peptides in HL60 cells using the assay described above.
(In flow cytometry, cells or beads pass a laser one at a time.)

Structures are written as SMILES. Square brackets hold non-standard residues; d marks the D form. Peptide text beside a SMILES is read from it. * marks the point of attachment. Octanoyl = CCCCCCCC(=O)* Where only a bound is given, the exact number is not on record here.

`CC(C)C[C@@H](NC(=O)[C@@H](Cc1c[nH]c2ccccc12)NC(=O)[C@H](N)Cc1c[nH]c2ccccc12)C(=O)N[C@H](C)C(=O)N[C@H](CCCNC(=N)N)C(=O)N[C@H](CCC(N)=O)C(=O)N[C@H](CC(C)C)C(=O)N[C@H](C)C(=O)N[C@H](CCCNC(=N)N)C(=O)N[C@H](CC(C)C)C(=O)N[C@H](C)C(=O)N[C@H](CCC(N)=O)C(=O)N[C@H](CC(C)C)C(=O)N[C@H](C)C(=O)N[C@H](CCCNC(=N)N)C(=O)N[C@H](CCC(=O)O)C(=O)N[C@H](CCCNC(=N)N)C(=O)N[C@H](Cc1c[nH]cn1)C(=O)N[C@H](CCC(=O)O)C(=O)N[C@H](CC(C)C)C(=O)N[C@H](CCC(N)=O)C(=O)N[C@H](CCC(=O)O)C(=O)N[C@H](CCC(N)=O)C(=O)N[C@H](CO)C(=O)N[C@H](CC(C)C)C(=O)N[C@H](CCCCN)C(=O)N[C@H](CC(C)C)C(=O)N[C@@H](C(=O)N1CCC[C@@H]1C(=O)N[C@@H](C(=O)O)C(C)C)[C@H](C)O` [BCL-84] (H-[dW][dW][dL][dA][dR][dQ][dL][dA][dR][dL][dA][dQ][dL][dA][dR][dE][dR][dH][dE][dL][dQ][dE][dQ][dS][dL][dK][dL][dT][dP][dV]-OH; N-terminus and C-terminus assumed) displayed a 50% effective concentration (EC50) of less than 2000 nM.

`CC(C)C[C@@H](NC(=O)[C@@H](Cc1c[nH]c2ccccc12)NC(=O)[C@@H](N)CCCNC(=N)N)C(=O)N[C@H](C)C(=O)N[C@H](CCCNC(=N)N)C(=O)N[C@H](CCC(N)=O)C(=O)N[C@H](CC(C)C)C(=O)N[C@H](C)C(=O)N[C@H](CCCNC(=N)N)C(=O)N[C@H](CC(C)C)C(=O)N[C@H](C)C(=O)N[C@H](CCC(N)=O)C(=O)N[C@H](CC(C)C)C(=O)N[C@H](C)C(=O)N[C@H](CCCCN)C(=O)N[C@H](CC(C)C)C(=O)N[C@@H](C(=O)N1CCC[C@@H]1C(=O)N[C@@H](C(=O)O)C(C)C)[C@H](C)O` [BCL-100] (H-R[dW][dL][dA][dR][dQ][dL][dA][dR][dL][dA][dQ][dL][dA][dK][dL][dT][dP][dV]-OH; N-terminus and C-terminus assumed) showed an EC50 of less than 2000 nM.

`CC(C)C[C@@H](NC(=O)[C@@H](Cc1c[nH]c2ccccc12)NC(=O)[C@H](N)Cc1c[nH]c2ccccc12)C(=O)N[C@H](C)C(=O)N[C@H](CCCNC(=N)N)C(=O)N[C@H](CCC(N)=O)C(=O)N[C@H](CC(C)C)C(=O)N[C@H](C)C(=O)N[C@H](CCCNC(=N)N)C(=O)N[C@H](CC(C)C)C(=O)N[C@H](CCC(N)=O)C(=O)N[C@H](CCC(N)=O)C(=O)N[C@H](CC(C)C)C(=O)N[C@H](C)C(=O)N[C@H](CCCCN)C(=O)N[C@H](CC(C)C)C(=O)N[C@@H](C(=O)N1CCC[C@@H]1C(=O)N[C@@H](C(=O)O)C(C)C)[C@H](C)O` [BCL-85] (H-[dW][dW][dL][dA][dR][dQ][dL][dA][dR][dL][dQ][dQ][dL][dA][dK][dL][dT][dP][dV]-OH; N-terminus and C-terminus assumed): the concentration giving a half-maximal response (EC50) is less than 2000 nM.

In turn, `CCCCCCCC(=O)N1CCC[C@@H]1C(=O)N[C@H](CO)C(=O)N[C@H](CC(=O)O)C(=O)NCC(=O)N[C@H](CCCNC(=N)N)C(=O)NCC(=O)N[C@H](Cc1c[nH]c2ccccc12)C(=O)N[C@H](Cc1c[nH]c2ccccc12)C(=O)N[C@H](CC(C)C)C(=O)N[C@H](C)C(=O)N[C@H](CCCNC(=N)N)C(=O)N[C@H](CCC(N)=O)C(=O)N[C@H](CC(C)C)C(=O)N[C@H](C)C(=O)N[C@H](CCCNC(=N)N)C(=O)N[C@H](CC(C)C)C(=O)N[C@H](C)C(=O)N[C@H](CCC(N)=O)C(=O)N[C@H](CC(C)C)C(=O)N[C@H](C)C(=O)N[C@H](CCCCN)C(=O)N[C@H](CC(C)C)C(=O)N[C@@H](C(=O)N1CCC[C@@H]1C(=O)N[C@@H](C(=O)O)C(C)C)[C@H](C)O` [BCL-135] (Octanoyl-[dP][dS][dD]G[dR]G[dW][dW][dL][dA][dR][dQ][dL][dA][dR][dL][dA][dQ][dL][dA][dK][dL][dT][dP][dV]-OH; C-terminus assumed) yielded an EC50 of 2000 to 10000 nM.

In turn, `CC(C)C[C@@H](NC(=O)[C@@H](Cc1c[nH]c2ccccc12)NC(=O)[C@@H](N)Cc1c[nH]c2ccccc12)C(=O)N[C@H](C)C(=O)N[C@H](CCCNC(=N)N)C(=O)N[C@H](CCC(N)=O)C(=O)N[C@H](CC(C)C)C(=O)N[C@H](C)C(=O)N[C@H](CCCNC(=N)N)C(=O)N[C@H](CC(C)C)C(=O)N[C@H](C)C(=O)N[C@H](CCC(N)=O)C(=O)N[C@H](CC(C)C)C(=O)N[C@H](C)C(=O)N[C@H](CCCCN)C(=O)N[C@H](CC(C)C)C(=O)N[C@@H](C(=O)N1CCC[C@@H]1C(=O)N[C@@H](C(=O)O)C(C)C)[C@H](C)O` [BCL-95] (H-W[dW][dL][dA][dR][dQ][dL][dA][dR][dL][dA][dQ][dL][dA][dK][dL][dT][dP][dV]-OH; N-terminus and C-terminus assumed) gave an EC50 of less than 2000 nM.

Compound `CC(C)C[C@@H](NC(=O)[C@@H](C)NC(=O)[C@@H](C)NC(=O)[C@@H](CC(C)C)NC(=O)[C@@H](CCC(N)=O)NC(=O)[C@@H](CCCNC(=N)N)NC(=O)[C@@H](C)NC(=O)[C@@H](CC(C)C)NC(=O)[C@@H](Cc1c[nH]c2ccccc12)NC(=O)[C@H](Cc1c[nH]c2ccccc12)NC(=O)[C@H](N)Cc1ccccc1)C(=O)N[C@H](C)C(=O)N[C@H](CCC(N)=O)C(=O)N[C@H](CC(C)C)C(=O)N[C@H](C)C(=O)N[C@H](CCCCN)C(=O)N[C@H](CC(C)C)C(=O)N[C@@H](C(=O)N1CCC[C@@H]1C(=O)N[C@@H](C(=O)O)C(C)C)[C@H](C)O` [BCL-133] (H-[dF]W[dW][dL][dA][dR][dQ][dL][dA][dA][dL][dA][dQ][dL][dA][dK][dL][dT][dP][dV]-OH; N-terminus and C-terminus assumed) gave an EC50 of less than 2000 nM.

For the compound `CC(C)C[C@@H](NC(=O)[C@@H](CCC(N)=O)NC(=O)[C@@H](C)NC(=O)[C@@H](CC(C)C)NC(=O)[C@@H](CCCNC(=N)N)NC(=O)[C@@H](C)NC(=O)[C@@H](CC(C)C)NC(=O)[C@@H](CCC(N)=O)NC(=O)[C@@H](CCCNC(=N)N)NC(=O)[C@@H](C)NC(=O)[C@@H](CC(C)C)NC(=O)[C@@H](Cc1c[nH]c2ccccc12)NC(=O)[C@@H](Cc1c[nH]c2ccccc12)NC(=O)CNC(=O)[C@@H](CCCNC(=N)N)NC(=O)CNC(=O)[C@@H](CC(=O)O)NC(=O)[C@@H](CO)NC(=O)[C@H]1CCCN1)C(=O)N[C@H](C)C(=O)O` [BCL-92] (H-[dP][dS][dD]G[dR]G[dW][dW][dL][dA][dR][dQ][dL][dA][dR][dL][dA][dQ][dL][dA]-OH; N-terminus and C-terminus assumed), the EC50 lay in the range of 2000 to 10000 nM.

`CC(C)C[C@@H](NC(=O)[C@@H](Cc1c[nH]c2ccccc12)NC(=O)[C@H](Cc1c[nH]c2ccccc12)NC(=O)[C@H](N)Cc1ccccc1)C(=O)N[C@H](C)C(=O)N[C@H](CCCNC(=N)N)C(=O)N[C@H](CCC(N)=O)C(=O)N[C@H](CC(C)C)C(=O)N[C@H](C)C(=O)N[C@H](CCCNC(=N)N)C(=O)N[C@H](CC(C)C)C(=O)N[C@H](C)C(=O)N[C@H](CCC(N)=O)C(=O)N[C@H](CC(C)C)C(=O)N[C@H](C)C(=O)N[C@H](CCCCN)C(=O)N[C@H](CC(C)C)C(=O)N[C@@H](C(=O)N1CCC[C@@H]1C(=O)N[C@@H](C(=O)O)C(C)C)[C@H](C)O` [BCL-101] (H-[dF]W[dW][dL][dA][dR][dQ][dL][dA][dR][dL][dA][dQ][dL][dA][dK][dL][dT][dP][dV]-OH; N-terminus and C-terminus assumed) gave an EC50 of less than 2000 nM.

As usually defined, the EC50 is the midpoint of the concentration-response curve. Low readings indicate greater potency, high ones weaker potency.
